Results published in patent US4324728A, “Compound nanaomycin A and derivatives thereof and a process for producing the same” (The Kitasato Institute, priority 1976, dated 1982).
Values after ≈ are worked out from the molar mass of the structure shown. Like-named read-outs stand apart in the source and are kept apart here.

Assays:
Escherichia coli NIHJ = test: Minimal inhibitory concentration (agar); type: cell-based; details: 48 h, nutrient agar, pH 7.0, 2 days, 37° C.
Staphylococcus aureus = test: Growth inhibition (text summary of Table 1); type: cell-based; details: 48 h, read-out: concentration at which growth is inhibited
Experimental: (§1) Medium N nutrient agar (pH 7.0, 2 days, 37° C.)

Mycobacterium smegmatis = test: Minimal inhibitory concentration (agar); type: cell-based; details: Mycolicibacterium smegmatis, 48 h; nutrient agar, pH 7.0, 2 days, 37° C.
Experimental: as §1
(§2) MIC Minimal inhibitory concentration

[1] = tested on: Aspergillus fumigatus IAM 2612; test: Minimal inhibitory concentration (agar); type: cell-based; details: IAM2612, 96 h, potato agar, pH 6.4, 4 days, 27° C.
Experimental: P potato agar (pH 6.4, 4 days, 27° C.)
as §2

[2] = tested on: Tricophyton metagorphytes; test: Treatment of dermatomycosis at the back of guinea pigs; type: in vivo; details: 0.01-1% solution in propyleneglycol-ethanol (3:1 v/v), once daily for 8 days
[3] = tested on: Mycoplasma gallisepticum 333P (Spiramycin resistant); test: Minimal inhibitory concentration (PPLO agar); type: cell-based
Experimental: (§3) H Hokken PPLO agar (pH 7.8, 8 days, 37° C.)
(§4) E Eiken PPLO agar (pH 7.8, 8 days, 37° C.)
as §2

[4] = tested on: Mycoplasma gallisepticum KP-13; test: Minimal inhibitory concentration (PPLO agar); type: cell-based; details: Mycoplasmoides gallisepticum, KP13, 192 h, pH 7.8, 8 days, 37° C.
Experimental: as §3, §4, §2

[5] = tested on: Mycoplasma gallisepticum S-6; test: Minimal inhibitory concentration (PPLO agar); type: cell-based; details: Mycoplasmoides gallisepticum, S6, 192 h, pH 7.8, 8 days, 37° C.
Experimental: as §3, §4, §2

[6] = tested on: Acholeplasma laidlawii (B) Bml; test: Minimal inhibitory concentration (PPLO agar); type: cell-based; details: 192 h, pH 7.8, 8 days, 37° C.
Experimental: as §3, §4, §2

[7] = tested on: Acholeplasma laidlawii (A) PG8; test: Minimal inhibitory concentration (PPLO agar); type: cell-based; details: pH 7.8, 8 days, 37° C.
Experimental: as §3, §4, §2

Mycoplasma pneumoniae = test: Minimal inhibitory concentration (PPLO agar); type: cell-based; details: 192 h, Eiken PPLO agar, pH 7.8, 8 days, 37° C.
Microsporum gypseum = test: Minimal inhibitory concentration (agar dilution method); type: cell-based; details: Nannizzia gypsea, 96 h; potato agar, pH 6.4, 27° C., 4 days; read-out: Minimal Inhibitory Con.
Experimental: (§5) Minimal inhibitory concentration was assayed by agar dilution method
(§6) (potato agar, pH 6.4, 27° C., 4 days).

Aspergillus fumigatus = test: as above; type: cell-based; details: Aspergillus fumigatus, 96 h; potato agar, pH 6.4, 27° C., 4 days; read-out: Minimal Inhibitory Con.
Experimental: as §5, §6

Mycoplasma gallisepticum = test: Therapeutic effect on chronic respiratory disease of chickens; type: in vivo
[8] = tested on: Trichophyton mentagrophytes; test: Minimal inhibitory concentration (agar); type: cell-based; details: 96 h, pH 6.4, potato agar, pH 6.4, 4 days, 27° C.
Piricularia oryzae = test: microbe, parasite or virus in culture; type: cell-based; details: 96 h, pH 6.4, potato agar, pH 6.4, 4 days, 27° C.
[9] = tested on: parasite of the genus Tricophyton; test: Therapeutic effect on infectious diseases in guinea pigs and cattle; type: in vivo; details: concentration 0.01-1%
Experimental: When dermatomycosis of cattle caused by mass infection of Trichophyton verrucosum is treated with nanaomycin A, nanaomycin A is dissolved or suspended in a suitable carrier, for example, olive oil, and is coated on the affected part directly with or without removal of the scales. […] The results obtained by once-coating of nanaomycin A and by twice-coating (the second coating is carried out a week after the first coating) are shown in Tables 2 and 3, respectively.

fungi = test: Antifungal activity (in words); type: cell-based

Work on `CC1OC(CC(=O)O)CC2=C1C(=O)c1c(O)cccc1C2=O` (stereo not drawn) [Nanaomycin A, nanaomycin A] yielded an MIC (Escherichia coli NIHJ) of 31.3 µg/mL (≈ 104 µM), an MIC (Staphylococcus aureus) of 2 to 8 µg/mL (≈ 6.62 to 26.5 µM) and an MIC (Mycobacterium smegmatis) of 62.5 µg/mL (≈ 207 µM). The MIC [1] was 12.5 µg/mL (≈ 41.4 µM), the “therapeutic effect on erythema and scales” value [2] was “excellent therapeutic effect” and the MIC ([3]; Eiken PPLO agar, pH 7.8, 8 days, 37° C.) was under 0.013 µg/mL. For the same compound, the MIC ([3]; Mycoplasmoides gallisepticum, 192 h, pH 7.8) was under 0.013 µg/mL, the “activity against spiramycin-resistant Mycoplasma gallisepticum” value ([3]; in words) was “strong activity” and the MIC ([4]; pH 7.8, Eiken PPLO agar) was 0.05 µg/mL (≈ 0.165 µM). For the same compound, the MIC ([4]; pH 7.8, Hokken PPLO agar) was under 0.013 µg/mL, the MIC ([5]; pH 7.8, Hokken PPLO agar) was under 0.013 µg/mL and the MIC ([5]; Eiken PPLO agar, read-out: MIC) was 0.1 µg/mL (≈ 0.331 µM). For the same compound, the MIC ([6]; pH 7.8, Eiken PPLO agar) was over 25 µg/mL, the MIC ([6]; pH 7.8, Hokken PPLO agar) was 25 µg/mL (≈ 82.7 µM) and the MIC ([7]; Acholeplasma laidlawii, 192 h, Hokken PPLO agar, read-out: MIC) was over 25 µg/mL. It also gave an MIC ([7]; Eiken PPLO agar) of over 25 µg/mL, an MIC (Mycoplasma pneumoniae) of 0.013 µg/mL (≈ 0.043 µM) and an MIC (Microsporum gypseum) of 0.8 µg/mL (≈ 2.65 µM). The MIC (Aspergillus fumigatus) was 6.3 µg/mL (≈ 20.8 µM) and the “therapeutic effect on chronic respiratory disease” value (Mycoplasma gallisepticum) was “exhibits therapeutic effect”.
`CC(=O)Oc1cccc2c1C(=O)C1=C(CC(CC(=O)O)OC1C)C2=O` (stereo not drawn) [Acetylnanaomycin A, acetylnanaomycin A] was tested, and the MIC [8] was 0.4 µg/mL (≈ 1.16 µM), the MIC (Piricularia oryzae) was 0.8 µg/mL (≈ 2.32 µM) and the “therapeutic effect on Trichophyton infectious diseases” value [9] was “superior therapeutic effect to nanaomycin A”. For the same compound, the activity against fungi (fungi) was “as strong activity against fungi and mycoplasmas as nanaomycin A”.
